Data reported in patent US4681755A, “Delivery device for zero-order release of an active principle into a dissolution fluid and process for its preparation” (Sigma-Tau Industrie Farmaceutiche Riunite S.p.A., priority 1984, dated 1987).
Where two headings read alike, the source gives them in different places.

Assays:
[1] = In vitro release, USP XXI "paddle" apparatus, distilled water at 37° C.; assay type: physicochemical
Experimental: "In vitro" experiments were carried out both on (i) the uncoated solid matrix-type reservoirs, and (ii) the finished devices; i.e., on the reservoirs coated both with the release rate-controlling membrane and with the protective membrane loaded with a portion of the active principle which is desired to be immediately available.
To carry out such experiments, a USP XXI "paddle" apparatus was used with distilled water at 37° C. as the dissolution medium.

[2] = as above; assay type: physicochemical; conditions: Ex. 2, coated reservoir, no drug in protective membrane
[3] = In vitro model, diltiazem release (Example 7; apparatus not restated); assay type: physicochemical
[4] = Ex. 1 device, healthy volunteer
Experimental: A healthy volunteer was administered the same device. The following plasma levels of active principle were detected.

[5] = Ex. 1, coated reservoir, drug-loaded protective membrane, 1 h
[6] = Ex. 1, coated reservoir, drug-loaded protective membrane, 2 h
[7] = Ex. 1, coated reservoir, drug-loaded protective membrane, 3 h
[8] = Ex. 1, coated reservoir, drug-loaded protective membrane, 4 h
[9] = Ex. 1, coated reservoir, drug-loaded protective membrane, 5 h
[10] = Ex. 1, coated reservoir, drug-loaded protective membrane, 6 h
[11] = Ex. 1, uncoated solid matrix-type reservoir (100 mg), 30 min
[12] = Ex. 1, uncoated solid matrix-type reservoir (100 mg), 60 min
[13] = Ex. 1, uncoated solid matrix-type reservoir (100 mg), 90 min
[14] = Ex. 1, uncoated solid matrix-type reservoir (100 mg), 120 min

Compound: CCC(COC(=O)c1cc(OC)c(OC)c(OC)c1)(c1ccccc1)N(C)C (stereo not shown) [Trimebutine, trimebutine]
- Total drug released ([1]; Ex. 5, coated reservoir, drug-loaded protective membrane, 1 h): 18 mg
- Total drug released ([1]; Ex. 5, coated reservoir, drug-loaded protective membrane, 2 h): 30 mg
- Total drug released ([1]; Ex. 5, coated reservoir, drug-loaded protective membrane, 3 h): 50 mg
- Total drug released ([1]; Ex. 5, coated reservoir, drug-loaded protective membrane, 4 h): 67 mg
- Total drug released ([1]; Ex. 5, coated reservoir, drug-loaded protective membrane, 5 h): 90 mg
- Total drug released ([1]; Ex. 5, coated reservoir, drug-loaded protective membrane, 6 h): 103 mg
- Total drug released ([1]; Ex. 5, uncoated solid matrix-type reservoir (140 mg), 30 min): 20 mg
- Total drug released ([1]; Ex. 5, uncoated solid matrix-type reservoir (140 mg), 60 min): 64 mg
- Total drug released ([1]; Ex. 5, uncoated solid matrix-type reservoir (140 mg), 90 min): 80 mg
- Total drug released ([1]; Ex. 5, uncoated solid matrix-type reservoir (140 mg), 120 min): 105 mg
- Total drug released ([1]; Ex. 6, coated reservoir, protective membrane loaded with 15 mg drug, 0.5 h): 22.5 mg
- Total drug released ([1]; Ex. 6, coated reservoir, protective membrane loaded with 15 mg drug, 1 h): 45.0 mg
- Total drug released ([1]; Ex. 6, coated reservoir, protective membrane loaded with 15 mg drug, 2 h): 82.5 mg
- Total drug released ([1]; Ex. 6, coated reservoir, protective membrane loaded with 15 mg drug, 3 h): 105.0 mg
- Total drug released ([1]; Ex. 6, coated reservoir, protective membrane loaded with 15 mg drug, 4 h): 120.0 mg
- Total drug released ([1]; Ex. 6, coated reservoir, protective membrane loaded with 15 mg drug, 5 h): 127.5 mg
- Total drug released ([1]; Ex. 6, uncoated solid matrix-type reservoir (135 mg), 20 min): 47 mg
- Total drug released ([1]; Ex. 6, uncoated solid matrix-type reservoir (135 mg), 40 min): 64.8 mg
- Total drug released ([1]; Ex. 6, uncoated solid matrix-type reservoir (135 mg), 60 min): 77.0 mg
- Total drug released ([1]; Ex. 6, uncoated solid matrix-type reservoir (135 mg), 80 min): 87.8 mg
- Total drug released ([1]; Ex. 6, uncoated solid matrix-type reservoir (135 mg), 100 min): 94.5 mg
- Total drug released ([1]; Ex. 6, uncoated solid matrix-type reservoir (135 mg), 180 min): 115 mg

Compound: CC(=O)O[C@H](CC(=O)[O-])C[N+](C)(C)C [Acetyl L-carnitine, acetyl L-carnitine]
- Total drug released ([1]; Ex. 3, coated reservoir, no drug in protective membrane, 1 h): 60 mg
- Total drug released ([1]; Ex. 3, coated reservoir, no drug in protective membrane, 2 h): 135 mg
- Total drug released ([1]; Ex. 3, coated reservoir, no drug in protective membrane, 3 h): 210 mg
- Total drug released ([1]; Ex. 3, coated reservoir, no drug in protective membrane, 4 h): 280 mg
- Total drug released ([1]; Ex. 3, coated reservoir, no drug in protective membrane, 5 h): 348 mg
- Total drug released ([1]; Ex. 3, coated reservoir, no drug in protective membrane, 6 h): 411 mg
- Total drug released ([1]; Ex. 3, uncoated solid matrix-type reservoir (500 mg), 30 min): 158 mg
- Total drug released ([1]; Ex. 3, uncoated solid matrix-type reservoir (500 mg), 60 min): 242 mg
- Total drug released ([1]; Ex. 3, uncoated solid matrix-type reservoir (500 mg), 90 min): 335 mg
- Total drug released ([1]; Ex. 3, uncoated solid matrix-type reservoir (500 mg), 120 min): 395 mg

Compound: COc1ccc2c(C(=O)c3ccc(Cl)cc3)c(C)n(CC(=O)O)c2c1.NCCCCC(N)C(=O)O [Clometacin lysinate, clometacin lysinate]
- Total drug released ([1]; Ex. 4, coated reservoir, drug-loaded protective membrane, 1 h): 15 mg
- Total drug released ([1]; Ex. 4, coated reservoir, drug-loaded protective membrane, 2 h): 40 mg
- Total drug released ([1]; Ex. 4, coated reservoir, drug-loaded protective membrane, 3 h): 61 mg
- Total drug released ([1]; Ex. 4, coated reservoir, drug-loaded protective membrane, 4 h): 78 mg
- Total drug released ([1]; Ex. 4, coated reservoir, drug-loaded protective membrane, 5 h): 95 mg
- Total drug released ([1]; Ex. 4, coated reservoir, drug-loaded protective membrane, 6 h): 116 mg
- Total drug released ([1]; Ex. 4, uncoated solid matrix-type reservoir (150 mg), 30 min): 63 mg
- Total drug released ([1]; Ex. 4, uncoated solid matrix-type reservoir (150 mg), 60 min): 91 mg
- Total drug released ([1]; Ex. 4, uncoated solid matrix-type reservoir (150 mg), 90 min): 105 mg
- Total drug released ([1]; Ex. 4, uncoated solid matrix-type reservoir (150 mg), 120 min): 124 mg

Compound: methisoprinol
- Total drug released ([2]; 1 h): 53 mg
- Total drug released ([2]; 5 h): 273 mg
- Total drug released ([1]; Ex. 2, coated reservoir, no drug in protective membrane, 2 h): 115 mg
- Total drug released ([1]; Ex. 2, coated reservoir, no drug in protective membrane, 3 h): 173 mg
- Total drug released ([1]; Ex. 2, coated reservoir, no drug in protective membrane, 4 h): 223 mg
- Total drug released ([1]; Ex. 2, coated reservoir, no drug in protective membrane, 6 h): 315 mg
- Total drug released ([1]; Ex. 2, coated reservoir, no drug in protective membrane, 7 h): 357 mg
- Total drug released ([1]; Ex. 2, uncoated solid matrix-type reservoir (500 mg), 30 min): 225 mg
- Total drug released ([1]; Ex. 2, uncoated solid matrix-type reservoir (500 mg), 60 min): 312 mg
- Total drug released ([1]; Ex. 2, uncoated solid matrix-type reservoir (500 mg), 90 min): 365 mg
- Total drug released ([1]; Ex. 2, uncoated solid matrix-type reservoir (500 mg), 120 min): 405 mg

Compound: COc1ccc([C@@H]2Sc3ccccc3N(CCN(C)C)C(=O)[C@@H]2OC(C)=O)cc1.Cl [Diltiazem, diltiazem HCl]
- Total drug released ([3]; Ex. 7, coated reservoir, no drug in protective membrane, 0.5 h): 14.4 mg
- Total drug released ([3]; Ex. 7, coated reservoir, no drug in protective membrane, 1 h): 29.5 mg
- Total drug released ([3]; Ex. 7, coated reservoir, no drug in protective membrane, 2 h): 67.6 mg
- Total drug released ([3]; Ex. 7, coated reservoir, no drug in protective membrane, 3 h): 89.9 mg
- Total drug released ([3]; Ex. 7, coated reservoir, no drug in protective membrane, 4 h): 102.3 mg
- Total drug released ([3]; Ex. 7, uncoated solid matrix-type reservoir (120 mg), 15 min): 40.0 mg
- Total drug released ([3]; Ex. 7, uncoated solid matrix-type reservoir (120 mg), 30 min): 57.6 mg
- Total drug released ([3]; Ex. 7, uncoated solid matrix-type reservoir (120 mg), 45 min): 69.6 mg
- Total drug released ([3]; Ex. 7, uncoated solid matrix-type reservoir (120 mg), 60 min): 80.4 mg
- Total drug released ([3]; Ex. 7, uncoated solid matrix-type reservoir (120 mg), 75 min): 85.2 mg

Compound: COc1ccc2c(c1)c(CC(=O)O)c(C)n2C(=O)c1ccc(Cl)cc1.NCCCC[C@H](N)C(=O)O [Indomethacin lysinate, Lysine salt of indomethacin]
- Plasma level of active principle ([4]; 1 h): 1.6 µg/mL
- Plasma level of active principle ([4]; 2 h): 2.5 µg/mL
- Plasma level of active principle ([4]; 5 h): 3.2 µg/mL
- Plasma level of active principle ([4]; 8 h): 1.5 µg/mL
- Plasma level of active principle ([4]; 12 h): 1.1 µg/mL
- Plasma level of active principle ([4]; 24 h): 0.8 µg/mL
- Release rate in vitro ([1]; Ex. 1, after release rate-controlling membrane is applied): substantially constant through the sixth hour
- Rate [1, 5]: 14 mg/h
- Total drug released [1, 5]: 14 mg
- Rate [1, 6]: 12.5 mg/h
- Total drug released [1, 6]: 25 mg
- Rate [1, 7]: 13.3 mg/h
- Total drug released [1, 7]: 40 mg
- Rate [1, 8]: 14.25 mg/h
- Total drug released [1, 8]: 57 mg
- Rate [1, 9]: 15.4 mg/h
- Total drug released [1, 9]: 77 mg
- Rate [1, 10]: 15.5 mg/h
- Total drug released [1, 10]: 93 mg
- Time in which drug is wholly released ([1]; Ex. 1, uncoated solid matrix-type reservoir): about 5 hours
- Rate [1, 11]: 40 mg/h
- Total drug released [1, 11]: 20 mg
- Rate [1, 12]: 54 mg/h
- Total drug released [1, 12]: 54 mg
- Rate [1, 13]: 43 mg/h
- Total drug released [1, 13]: 65 mg
- Rate [1, 14]: 37.5 mg/h
- Total drug released [1, 14]: 75 mg
